In patent US20260174750A1 (Merck Sharp & Dohme LLC, priority 2022, published 2026):

target: T1, human DGAT2 (Homo sapiens, UniProt Q96PD7); assay: biochemical
T1 sequence (Q96PD7 1-388): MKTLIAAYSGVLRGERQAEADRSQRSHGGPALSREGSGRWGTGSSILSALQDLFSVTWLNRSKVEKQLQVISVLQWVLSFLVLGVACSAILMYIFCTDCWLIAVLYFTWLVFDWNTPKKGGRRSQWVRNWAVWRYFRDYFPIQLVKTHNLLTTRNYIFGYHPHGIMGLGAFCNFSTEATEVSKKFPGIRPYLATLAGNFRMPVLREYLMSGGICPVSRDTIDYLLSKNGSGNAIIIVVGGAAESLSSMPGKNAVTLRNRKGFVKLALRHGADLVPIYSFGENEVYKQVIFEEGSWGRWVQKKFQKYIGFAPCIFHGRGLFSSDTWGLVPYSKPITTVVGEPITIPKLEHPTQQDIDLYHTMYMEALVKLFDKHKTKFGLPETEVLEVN
Experimental: Cell pellets were suspended in buffer containing 10 mM Tris-HCl pH 7.5, 1 mM EDTA, 250 mM sucrose and Complete Protease Inhibitor Cocktail (Sigma Aldrich), and sonicated on ice. Cell debris were removed by centrifugation at 2000×g for 15 minutes. Membrane fractions were isolated by ultracentrifugation (100,000×g), resuspended in the same buffer, and frozen (−80° C.) for later use. The protein concentration was determined with the Pierce™ BCA Protein Assay Kit (Thermo Fisher Scientific).
LC/MS/MS analyses were performed using Thermal Fisher's LX4-TSQ Vantage system. This system consists of an Agilent binary high-performance liquid chromatography (HPLC) pump and a TSQ Vantage triple quadrupole MS/MS instrument. For each sample, 2 μL samples from the top organic layer of in-plate liquid-liquid extraction were injected onto a Thermo Betabasic C4 column (2.1 mm×20 mm, 5 μm particle size). The samples were then eluted using the following conditions; mobile phase: Isopropanol:acetonitrile/10 mM ammonium formate=50/35/15 (v/v/v), flow rate: 0.8 mL/min, temperature: 25° C. Data was acquired in positive mode using a heated electrospray ionization (HESI) interface. […] The peak area was integrated by Xcalibur Quan software. The ratio between the ^13C18 triolein generated in the reaction and spiked in internal standard ^13C21-triolein was used to generate percentage inhibition and IC50 values. […] DGAT2 activity was determined by measuring the amount of enzymatic product ^13C18-triolein (^13C-1,2,3-Tri(cis-9-octadecenoyl)glycerol) using the membrane prep mentioned above. The assay was carried out in ABgene 384-well assay plates in a final volume of 25 μL at rt.

Row | IC50 | Compound
1 | 103 nM | CCOc1cccnc1Oc1ccc2nc(C(=O)NC3(C)CS(=O)(=O)C3)nn2c1 [Example 3, 6-[(3-ethoxy-2-pyridyl)oxy]-N-(3-methyl-1,1-dioxo-thietan-3-yl)-[1,2,4]triazolo[1,5-a]pyridine-2-carboxamide]
2 | 2440 nM | CCOc1cccnc1Oc1ccc2nc(C(=O)N[C@@H]3CCOC3)nn2c1 [Example 5, 6-[(3-ethoxy-2-pyridyl)oxy]-N-[(3R)-tetrahydrofuran-3-yl]-[1,2,4]triazolo[1,5-a]pyridine-2-carboxamide]
3 | 149 nM | CCOc1cccnc1Oc1ccc2nc(C(=O)N[C@H]3CC[C@@](OC)(C(F)(F)F)CC3)nn2c1 [Example 6, 6-[(3-ethoxy-2-pyridyl)oxy]-N-[4-methoxy-4-(trifluoromethyl)cyclohexyl]-[1,2,4]triazolo[1,5-a]pyridine-2-carboxamide]
4 | 8250 nM | CC1(NC(=O)c2nc3ccc(Oc4ncccc4OCC(F)(F)F)cn3n2)CC(F)(F)C1 [Example 9]
5 | 11 nM | Cc1c(Oc2ncc(Cl)cc2OCC2(F)CC2)ccc2nc(C(=O)NC3(C)CCS(=O)(=O)CC3)nn12 [Example 15, 6-[[5-chloro-3-[(1-fluorocyclopropyl)methoxy]-2-pyridyl]oxy]-5-methyl-N-(4-methyl-1,1-dioxo-thian-4-yl)-[1,2,4]triazolo[1,5-a]pyridine-2-carboxamide]
6 | 91 nM | Cc1cc2nc(C(=O)N[C@H]3CCCC(F)(F)[C@@H]3O)nn2cc1Oc1ncc(Cl)cc1OCC(F)(F)F [Example 23, 6-[[5-chloro-3-(2,2,2-trifluoroethoxy)-2-pyridyl]oxy]-N-[(1S,2R)-3,3-difluoro-2-hydroxy-cyclohexyl]-7-methyl-[1,2,4]triazolo[1,5-a]pyridine-2-carboxamide]
7 | 181 nM | Cc1cc2nc(C(=O)NC3(C)CCS(=O)(=O)CC3)nn2c(C)c1Oc1ncc(Cl)cc1OCC(F)(F)F [Example 24, 6-((5-Chloro-3-(2,2,2-trifluoroethoxy)pyridin-2-yl)oxy)-5,7-dimethyl-N-(4-methyl-1,1-dioxidotetrahydro-2H-thiopyran-4-yl)-[1,2,4]triazolo[1,5-a]pyridine-2-carboxamide]
8 | 9.5 nM | CC1(NC(=O)c2nc3c(F)cc(Oc4ncc(Cl)cc4OCC(F)(F)F)cn3n2)CCS(=O)(=O)CC1 [Example 26, 6-((5-Chloro-3-(2,2,2-trifluoroethoxy)pyridin-2-yl)oxy)-8-fluoro-N-(4-methyl-1,1-dioxidotetrahydro-2H-thiopyran-4-yl)-[1,2,4]triazolo[1,5-a]pyridine-2-carboxamide]
9 | 12 nM | Cc1c(Oc2ncc(Cl)cc2OCC(F)(F)F)cc(F)c2nc(C(=O)NC3(C)CCS(=O)(=O)CC3)nn12 [Example 28, 6-[[5-Chloro-3-(2,2,2-trifluoroethoxy)-2-pyridyl]oxy]-8-fluoro-5-methyl-N-(4-methyl-1,1-dioxo-thian-4-yl)-[1,2,4]triazolo[1,5-a]pyridine-2-carboxamide]
10 | 383 nM | Cc1c(Oc2ncc(Cl)cc2OCC(F)(F)F)cc(F)c2nc(C(=O)NC3(C)CS(=O)(=O)C3)nn12 [Example 29, 6-[[5-chloro-3-(2,2,2-trifluoroethoxy)-2-pyridyl]oxy]-8-fluoro-5-methyl-N-(3-methyl-1,1-dioxo-thietan-3-yl)-[1,2,4]triazolo[1,5-a]pyridine-2-carboxamide]
11 | 30 nM | Cc1c(Oc2ncc(Cl)cc2OCC(C)(F)F)cc(F)c2nc(C(=O)NC3(C)CCS(=O)(=O)CC3)nn12 [Example 31, 6-[[5-chloro-3-(2,2-difluoropropoxy)-2-pyridyl]oxy]-8-fluoro-5-methyl-N-(4-methyl-1,1-dioxo-thian-4-yl)-[1,2,4]triazolo[1,5-a]pyridine-2-carboxamide]
12 | 31 nM | Cc1c(Oc2nccnc2OCC(F)F)cc(F)c2nc(C(=O)NC3(C)CCS(=O)(=O)CC3)nn12 [Example 34, 6-[3-(2,2-difluoroethoxy)pyrazin-2-yl]oxy-8-fluoro-5-methyl-N-(4-methyl-1,1-dioxo-thian-4-yl)-[1,2,4]triazolo[1,5-a]pyridine-2-carboxamide]
13 | 336 nM | Cc1c(OCc2ncc(Cl)cc2OCC(F)F)ccc2nc(C(=O)NC3(C)CCS(=O)(=O)CC3)nn12 [Example 36, 6-((5-chloro-3-(2,2-difluoroethoxy)pyridin-2-yl)methoxy)-5-methyl-N-(4-methyl-1,1-dioxidotetrahydro-2H-thiopyran-4-yl)-[1,2,4]triazolo[1,5-a]pyridine-2-carboxamide]

The remaining lines, values behind:

Row | Compound | IC50
14 | CCOc1cccnc1Oc1ccc2nc(C(=O)NC3(C)CCS(=O)(=O)CC3)nn2c1 [Example 2, 6-[(3-ethoxy-2-pyridyl)oxy]-N-(4-methyl-1,1-dioxo-thian-4-yl)-[1,2,4]triazolo[1,5-a]pyridine-2-carboxamide] | 17 nM
15 | CCOc1cccnc1Oc1ccc2nc(C(=O)N[C@H]3CCOC3)nn2c1 [Example 4, 6-[(3-ethoxy-2-pyridyl)oxy]-N-[(3S)-tetrahydrofuran-3-yl]-[1,2,4]triazolo[1,5-a]pyridine-2-carboxamide] | 384 nM
16 | CC1(NC(=O)c2nc3ccc(Oc4ncccc4OCC(F)(F)F)cn3n2)CCS(=O)(=O)CC1 [Example 7, N-(4-methyl-1,1-dioxo-thian-4-yl)-6-[[3-(2,2,2-trifluoroethoxy)-2-pyridyl]oxy]-[1,2,4]triazolo[1,5-a]pyridine-2-carboxamide] | 126 nM
17 | CC1(NC(=O)c2nc3ccc(Oc4ncccc4OCC(F)(F)F)cn3n2)CCC(F)(F)CC1 [Example 8, N-(4,4-difluoro-1-methyl-cyclohexyl)-6-[[3-(2,2,2-trifluoroethoxy)-2-pyridyl]oxy]-[1,2,4]triazolo[1,5-a]pyridine-2-carboxamide] | 177 nM
18 | CC1(NC(=O)c2nc3ccc(Oc4ncc(Cl)cc4OCC(F)(F)F)cn3n2)CS(=O)(=O)C1 [Example 10, 6-[[5-chloro-3-(2,2,2-trifluoroethoxy)-2-pyridyl]oxy]-N-(3-methyl-1,1-dioxo-thietan-3-yl)-[1,2,4]triazolo[1,5-a]pyridine-2-carboxamide] | 151 nM
19 | O=C(N[C@H]1CCCC(F)(F)[C@@H]1O)c1nc2ccc(Oc3ncc(Cl)cc3OCC(F)(F)F)cn2n1 [Example 11] | 60 nM
20 | Cc1c(Oc2ncc(F)cc2OCC2(F)CC2)ccc2nc(C(=O)NC3(C)CCS(=O)(=O)CC3)nn12 [Example 16, 6-[[5-fluoro-3-[(1-fluorocyclopropyl)methoxy]-2-pyridyl]oxy]-5-methyl-N-(4-methyl-1,1-dioxo-thian-4-yl)-[1,2,4]triazolo[1,5-a]pyridine-2-carboxamide] | 25 nM
21 | Cc1c(Oc2ncc(Cl)cc2OCC(C)(F)F)ccc2nc(C(=O)NC3(C)CCS(=O)(=O)CC3)nn12 [Example 18] | 50 nM
22 | Cc1c(Oc2ncc(F)cc2OCC(C)(F)F)ccc2nc(C(=O)NC3(C)CCS(=O)(=O)CC3)nn12 [Example 19, 6-[[3-(2,2-difluoropropoxy)-5-fluoro-2-pyridyl]oxy]-5-methyl-N-(4-methyl-1,1-dioxo-thian-4-yl)-[1,2,4]triazolo[1,5-a]pyridine-2-carboxamide] | 210 nM
23 | Cc1c(Oc2ncc(Cl)cc2OCC(F)(F)F)ccc2nc(C(=O)N[C@H]3CCCC(F)(F)[C@@H]3O)nn12 [Example 21, 6-[[5-chloro-3-(2,2,2-trifluoroethoxy)-2-pyridyl]oxy]-N-[(1S,2R)-3,3-difluoro-2-hydroxy-cyclohexyl]-5-methyl-[1,2,4]triazolo[1,5-a]pyridine-2-carboxamide] | 581 nM
24 | Cc1cc2nc(C(=O)NC3(C)CCS(=O)(=O)CC3)nn2c(C)c1Oc1nccnc1OCC(F)(F)F [Example 25, 5,7-dimethyl-N-(4-methyl-1,1-dioxo-thian-4-yl)-6-[3-(2,2,2-trifluoroethoxy)pyrazin-2-yl]oxy-[1,2,4]triazolo[1,5-a]pyridine-2-carboxamide] | 91 nM
25 | Cc1c(Oc2ncc(F)cc2OCC(F)(F)F)cc(F)c2nc(C(=O)NC3(C)CCS(=O)(=O)CC3)nn12 [Example 30, 8-fluoro-6-[[5-fluoro-3-(2,2,2-trifluoroethoxy)-2-pyridyl]oxy]-5-methyl-N-(4-methyl-1,1-dioxo-thian-4-yl)-[1,2,4]triazolo[1,5-a]pyridine-2-carboxamide] | 19 nM
26 | Cc1c(Oc2ncc(F)cc2OCC(C)(F)F)cc(F)c2nc(C(=O)NC3(C)CCS(=O)(=O)CC3)nn12 [Example 32, 6-[[3-(2,2-difluoropropoxy)-5-fluoro-2-pyridyl]oxy]-8-fluoro-5-methyl-N-(4-methyl-1,1-dioxo-thian-4-yl)-[1,2,4]triazolo[1,5-a]pyridine-2-carboxamide] | 61 nM
27 | Cc1c(OCc2ncc(F)cc2OCC(F)(F)F)ccc2nc(C(=O)NC3(C)CCS(=O)(=O)CC3)nn12 [Example 35, 6-((5-Fluoro-3-(2,2,2-trifluoroethoxy)pyridin-2-yl)methoxy)-5-methyl-N-(4-methyl-1,1-dioxidotetrahydro-2H-thiopyran-4-yl)-[1,2,4]triazolo[1,5-a]pyridine-2-carboxamide] | 1680 nM
